Results: US9993494B2, “Compositions and methods for treating fibrotic disease” (eFFECTOR Therapeutics, Inc., priority 2014, dated 2018)

System: normal human lung fibroblasts
Assay: Ribosomal profiling: translational efficiency in TGFβ-treated fibroblasts
Type: cell-based
Method: Ribosomal profiling allows for measurement of changes in transcription and translation on a genome-wide basis accompanying TGFβ-dependent transformation of fibroblasts to myofibroblasts. Ribosomal profiles of the TGFβ-treated fibroblasts from Example 1 (about 6×10^6 cells/10 cm plate) were prepared and analyzed for changes in translational efficiencies with respect to potential disease-associated cellular changes accompanying this TGFβ-induced transformation.
Briefly, cells were washed with cold PBS supplemented with cycloheximide and lysed with 1× mammalian cell lysis buffer for 10 minutes on ice. Lysates were clarified by centrifugation for 10 minutes at 14,000 rpm and supernatants were collected. Cell lysates were processed to generate ribosomal protected fragments and total mRNA according to the instructions included with the ARTseq Ribosome Profiling Kit (Illumina, San Diego, Calif.). Sequencing of total RNA (RNA) and of ribosome-protected fragments of RNA (RPF) was carried out using RNA-Seq methodology according to the manufacturer's instructions (Illumina). To analyze the ribosomal profiles, RNA-Seq reads were processed with tools from the FASTX-Toolkit (fastq_quality_trimmer, fastx_clipper and fastx_trimmer). Unprocessed and processed reads were evaluated for a variety of quality measures using FastQC, and processed reads were mapped to the human genome using TopHat (see, e.g., Trapnell et al., Bioinformatics 25:1105, 2009). Gene-by-gene assessment of the number of fragments strictly and uniquely mapping to the coding region of each gene was conducted using HTSeq-count, a component of the HTSeq package. […] Genes with low counts in either RPF or RNA were excluded from differential analyses. Pathway and network analyses of differential data were conducted using Ingenuity Pathway Analysis (IPA).

Substance: TGFβ
- Log2 TE RPS8 (ENSG00000142937, 5 replicates): 1.611
- Log2 TE ACTA1 (ENSG00000143632, 5 replicates): −2.018
- change in translational profile of ACTA1 caused by TGFβ (ENSG00000143632, Control vs. TGFβ): A (A = <−2.5)
- Log2 TE PLEKHA6 (ENSG00000143850, 5 replicates): −2.069
- change in translational profile of PLEKHA6 caused by TGFβ (ENSG00000143850, Control vs. TGFβ): B (B = <−1.5 to −2.5)
- Log2 TE RPS27A (ENSG00000143947, 5 replicates): 1.275
- Log2 TE AFF3 (ENSG00000144218, 5 replicates): 1.146
- Log2 TE RPL32 (ENSG00000144713, 5 replicates): 1.916
- change in translational profile of RPL32 caused by TGFβ (ENSG00000144713, Control vs. TGFβ): E (E = <1.5 to 2.5)
- Log2 TE NICN1 (ENSG00000145029, 5 replicates): 1.403
- Log2 TE RPS3A (ENSG00000145425, 5 replicates): 1.661
- Log2 TE RPL37 (ENSG00000145592, 5 replicates): 1.808
- change in translational profile of RPL37 caused by TGFβ (ENSG00000145592, Control vs. TGFβ): E (E = <1.5 to 2.5)
- Log2 TE BTF3 (ENSG00000145741, 5 replicates): 1.13
- change in translational profile of BTF3 caused by TGFβ (ENSG00000145741, Control vs. TGFβ): D (D = <1.0 to 1.5)
- Log2 TE HIGD2A (ENSG00000146066, 5 replicates): 1.196
- change in translational profile of HIGD2A caused by TGFβ (ENSG00000146066, Control vs. TGFβ): D (D = <1.0 to 1.5)
- Log2 TE SLC2A12 (ENSG00000146411, 5 replicates): −1.9708
- change in translational profile of CREB5 caused by TGFβ (ENSG00000146592, Control vs. TGFβ): D (D = <1.0 to 1.5)
- Log2 TE ZNF92 (ENSG00000146757, 5 replicates): −1.238
- Log2 TE DENND2A (ENSG00000146966, 5 replicates): −1.156
- change in translational profile of DENND2A caused by TGFβ (ENSG00000146966, Control vs. TGFβ): C (C = <−1.0 to −1.5)
- Log2 TE RPL10 (ENSG00000147403, 5 replicates): 1.691
- change in translational profile of RPL10 caused by TGFβ (ENSG00000147403, Control vs. TGFβ): E (E = <1.5 to 2.5)
- Log2 TE EIF3H (ENSG00000147677, 5 replicates): 1.329
- change in translational profile of EIF3H caused by TGFβ (ENSG00000147677, Control vs. TGFβ): E (E = <1.5 to 2.5)
- Log2 TE SHC3 (ENSG00000148082, 5 replicates): −1.541
- Log2 TE RPL7A (ENSG00000148303, 5 replicates): 1.65
- change in translational profile of RPL7A caused by TGFβ (ENSG00000148303, Control vs. TGFβ): E (E = <1.5 to 2.5)
- change in translational profile of EIF3M caused by TGFβ (ENSG00000149100, Control vs. TGFβ): D (D = <1.0 to 1.5)
- Log2 TE RPS3 (ENSG00000149273, 5 replicates): 1.518
- change in translational profile of JPH2 caused by TGFβ (ENSG00000149596, Control vs. TGFβ): F (F = >2.5)
- change in translational profile of FAU caused by TGFβ (ENSG00000149806, Control vs. TGFβ): D (D = <1.0 to 1.5)
- Log2 TE CCDC102B (ENSG00000150636, 5 replicates): −2.977
- change in translational profile of CCDC102B caused by TGFβ (ENSG00000150636, Control vs. TGFβ): A (A = <−2.5)
- change in translational profile of FRMD4A caused by TGFβ (ENSG00000151474, Control vs. TGFβ): C (C = <−1.0 to −1.5)
- Log2 TE CCDC122 (ENSG00000151773, 5 replicates): −1.004
- Log2 TE TMEM178 (ENSG00000152154, 5 replicates): 2.016
- Log2 TE HOMER1 (ENSG00000152413, 5 replicates): 1.003
- change in translational profile of HOMER1 caused by TGFβ (ENSG00000152413, Control vs. TGFβ): D (D = <1.0 to 1.5)
- Log2 TE PLEKHH2 (ENSG00000152527, 5 replicates): −1.389
- change in translational profile of PLEKHH2 caused by TGFβ (ENSG00000152527, Control vs. TGFβ): B (B = <−1.5 to −2.5)
- Log2 TE UTRN (ENSG00000152818, 5 replicates): −1.085
- Log2 TE PTPRD (ENSG00000153707, 5 replicates): −1.186
- change in translational profile of ANKH caused by TGFβ (ENSG00000154122, Control vs. TGFβ): D (D = <1.0 to 1.5)
- Log2 TE ABCA6 (ENSG00000154262, 5 replicates): −2.167
- change in translational profile of ABCA6 caused by TGFβ (ENSG00000154262, Control vs. TGFβ): A (A = <−2.5)
- change in translational profile of OBSCN caused by TGFβ (ENSG00000154358, Control vs. TGFβ): B (B = <−1.5 to −2.5)
- Log2 TE NCAM2 (ENSG00000154654, 5 replicates): −1.135
- change in translational profile of ADAMTS5 caused by TGFβ (ENSG00000154736, Control vs. TGFβ): C (C = <−1.0 to −1.5)
- change in translational profile of OXA1L caused by TGFβ (ENSG00000155463, Control vs. TGFβ): D (D = <1.0 to 1.5)
- Log2 TE C9orf85 (ENSG00000155621, 5 replicates): 1.112
- change in translational profile of C9orf85 caused by TGFβ (ENSG00000155621, Control vs. TGFβ): D (D = <1.0 to 1.5)
- Log2 TE FMN2 (ENSG00000155816, 5 replicates): −1.246
- Log2 TE CLIC2 (ENSG00000155962, 5 replicates): −2.392
- Log2 TE UQCRB (ENSG00000156467, 5 replicates): 1.048
- Log2 TE RPL30 (ENSG00000156482, 5 replicates): 1.622
- change in translational profile of RPL30 caused by TGFβ (ENSG00000156482, Control vs. TGFβ): E (E = <1.5 to 2.5)
